{
  "source": "patent US6471968B1",
  "about": "“Multifunctional nanodevice platform” (Regents of the University of Michigan, priority 2000, dated 2002)",
  "origin": "cited, not measured here",
  "tested_on": "solid tumor models",
  "conditions": "solid tumor models for which cisplatin has no effect",
  "data": [
    {"smiles": "N.N.[Cl][Pt][Cl]", "note": "[cisplatin]", "values": [
      {"measurement": "in vivo activity in solid tumor models", "result": "no effect"}
    ]}
  ]
}
